IC50 data for 24 compounds are collected here from patent US12404261B2, “Compounds and compositions for treating conditions associated with cGAS” (Novartis AG, priority 2020, dated 2025).

For orientation: IC50 means the concentration at which inhibition is half-maximal.

Sequence of human truncated cGAS enzyme (147-522 human cGAS) (Q8N884 147-522): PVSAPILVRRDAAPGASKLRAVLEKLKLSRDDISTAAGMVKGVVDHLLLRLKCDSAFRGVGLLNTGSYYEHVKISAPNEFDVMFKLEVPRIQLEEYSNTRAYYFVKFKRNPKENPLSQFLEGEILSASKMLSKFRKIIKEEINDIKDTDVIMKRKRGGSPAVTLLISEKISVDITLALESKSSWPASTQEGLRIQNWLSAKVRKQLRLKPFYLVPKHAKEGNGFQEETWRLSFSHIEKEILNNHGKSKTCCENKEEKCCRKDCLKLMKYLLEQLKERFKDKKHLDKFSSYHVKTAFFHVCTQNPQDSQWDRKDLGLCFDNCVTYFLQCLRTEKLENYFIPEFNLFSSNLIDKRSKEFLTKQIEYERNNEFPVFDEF

For this assay, the target named is human truncated cGAS enzyme (147-522 human cGAS) (Homo sapiens (Human), UniProt Q8N884). In words: Quantification of cGAS protein inhibition (cGAMP formation measured by LC-MS/MS). It counts as biochemical. Conditions: reported for the potential mixture of co-existing tautomers and/or racemates. The method, then:
A reagent buffer was prepared in filtered and autoclaved water according to the following: • 50 mM Tris-buffer pH 7.5 (1 M Tris-buffer pH 7.5, Invitrogen, Cat. No. 15567-027); • 50 mM NaCl (5 M NaCl, Sodium Chloride Solution, Sigma, 59222C-); • 5 mM MgCl2 (1 M MgCl2, Sigma, M1028); • 0.1 mM ZnCl2 (Zinc Chloride [7646-85-7], powder, Cell Culture Tested, Sigma, Z-0152); and • 0.001% Tween 20 (TWEEN 20, Sigma Aldrich, P1379-).
A buffer for the cGAS enzyme was prepared in filtered and autoclaved water according to the following: • 50 mM Tris-buffer pH 7.5; • 5 mM MgCl2; and • 0.001% Tween 20.
Compounds were dispensed to a […]. The human truncated cGAS enzyme (4.2 mg/mL 147-522 human cGAS, MW 43,909 g/mol) was stored in 50 mM Tris, 500 mM NaCl, 5% (v/v) glycerol at pH 8 and diluted in the cGAS buffer enzyme shortly before use. The enzyme solution was transferred into the reagent buffer to give a final concentration of 30 nM. The reaction was started by mixing the enzyme with ISD (a 45 bp double stranded DNA, MW 27,670 g/mol, 5 mM), GTP and ATP to a final concentration of 5 μM, 0.5 mM and 0.5 mM respectively in a final volume of 10 μl. The reaction plates were then centrifuged at 1000 rpm for 1 minute and incubated at room temperature for 1 h. After 1 h of incubation, [^5Ns]-2′3′-cGAMP to a final concentration of 200 nM and 30 μL of 100% acetonitrile/0.175% of TFA were added to the reaction mixture. The plates were centrifuged at 1000 rpm for 1 minute before being sealed for 3 seconds at 170° C. using a ThermoScientific sealer (ALPS™ 50V) and an aluminum sealing cover (Pierce Seal, 4titude, Product Code: 4TI-0531).
The concentration of cGAMP was measured on a LC-MS/MS system consisting of a THERMO Dionex Ultimate LC system with a high pressure pump, an autosampler, a column heating compartment (Reinach, Switzerland) and a SCIEX Triple Quad 5500 (Framingham, MA, USA) mass spectrometer for detection. The sample plates were centrifuged for 10 minutes at 2000 rpm. Up to three plates were placed in the autosampler for injection. An aliquot of 10 μL of each sample was injected on an XBridge BEH Amide 3.5 μm, 2.1×50 mm column (P/N 186004859) with an XBridge BEH Amide 5 μm 2.1×5 mm VanGuard Cartridge (P/N 186007760) pre-column (both WATERS, MA, USA) held at 40° C. An isocratic flow of 1.0 mL/min solvent (60% ACN, 8 mM ammonium acetate, 5 mM ammonium hydroxide, 0.04% acetic acid) was applied and sprayed into the ion source of the mass spectrometers. The MS parameters were optimized based on the properties of the compounds to be detected and run in positive multi-reaction mode (MRM) based on the mass transitions. LC and MS parameters were also optimized to allow for a sample-to-sample measuring time of approximately 75 sec and a run time of 8 hours per 384-well plate. All data were analyzed with Excel; and the dose response curves were generated using the auto fitting function of XLfit. The IC50 was determined by plotting the cGAMP concentration ratio (cGAMP divided by the internal standard [^15Ns]-2′3′-cGAMP) versus the concentration of compound.
For `COCCn1c(-c2nnc(C(F)(F)F)[nH]2)c(-c2cn[nH]c2)c2cc(OC)c(Cl)cc21` [Example 26, 6-chloro-5-methoxy-1-(2-methoxyethyl)-3-(1H-pyrazol-4-yl)-2-(5-(trifluoromethyl)-4H-1,2,4-triazol-3-yl)-1H-indole], the IC50 amounted to 1810 nM.
On to `CCOC(=O)c1nnc(-c2[nH]c3cc(Cl)c(OC)cc3c2-c2cn[nH]c2)[nH]1` [Example 28, ethyl 5-(6-chloro-5-methoxy-3-(1H-pyrazol-4-yl)-1H-indol-2-yl)-4H-1,2,4-triazole-3-carboxylate], for which the IC50 worked out at 75 nM.
Next, `COC(=O)Cc1nnc(-c2[nH]c3c(Cl)c(Cl)ccc3c2-c2cn[nH]c2)[nH]1` [Example 29, methyl 2-(5-(6,7-dichloro-3-(1H-pyrazol-4-yl)-1H-indol-2-yl)-4H-1,2,4-triazol-3-yl)acetate]: 218 nM; `COc1cc2c(-c3cn[nH]c3)c(-c3nnc(C(N)=O)[nH]3)[nH]c2cc1Cl` [Example 31, 5-(6-chloro-5-methoxy-3-(1H-pyrazol-4-yl)-1H-indol-2-yl)-4H-1,2,4-triazole-3-carboxamide]: 49 nM; `FC(F)(F)c1nnc(-c2cc3c(Cl)c(Cl)ccc3n2-c2cn[nH]c2)[nH]1` [Example 32, 4,5-dichloro-1-(1H-pyrazol-4-yl)-2-(5-(trifluoromethyl)-4H-1,2,4-triazol-3-yl)-1H-indole]: 496 nM.
Take `Oc1cc2c(-c3cn[nH]c3)c(-c3nnc(C(F)(F)F)[nH]3)[nH]c2cc1Cl` [Example 33, 6-Chloro-3-(1H-pyrazol-4-yl)-2-(5-(trifluoromethyl)-4H-1,2,4-triazol-3-yl)-1H-indol-5-ol]: the IC50 was 38 nM.
As to `Oc1c(Cl)ccc2c(-c3cn[nH]c3)c(-c3nnc(C(F)(F)F)[nH]3)[nH]c12` [Example 34, 6-chloro-3-(1H-pyrazol-4-yl)-2-(5-(trifluoromethyl)-4H-1,2,4-triazol-3-yl)-1H-indol-7-ol], the IC50 worked out at 954 nM.
Next, `N#Cc1nnc(-c2[nH]c3c(Cl)c(Cl)ccc3c2-c2cn[nH]c2)[nH]1` [Example 35, 5-(6,7-Dichloro-3-(1H-pyrazol-4-yl)-1H-indol-2-yl)-4H-1,2,4-triazole-3-carbonitrile]: 77 nM; `OCc1nnc(-c2[nH]c3c(Cl)c(Cl)ccc3c2-c2cn[nH]c2)[nH]1` [Example 36, (5-(6,7-Dichloro-3-(1H-pyrazol-4-yl)-1H-indol-2-yl)-4H-1,2,4-triazol-3-yl)methanol]: 342 nM; `OCCn1cnc(-c2[nH]c3c(Cl)c(Cl)ccc3c2-c2cn[nH]c2)n1` [Example 37, 2-(3-(6,7-dichloro-3-(1H-pyrazol-4-yl)-1H-indol-2-yl)-1H-1,2,4-triazol-1-yl)ethan-1-ol]: 137 nM.
The figure for `Clc1ccc2c(-c3cn[nH]c3)c(-c3nnc[nH]3)[nH]c2c1Cl` [Example 38, 6,7-dichloro-3-(1H-pyrazol-4-yl)-2-(4H-1,2,4-triazol-3-yl)-1H-indole] is 136 nM; for `COc1cc2c(-n3ccnc3)c(-c3nnc(C(=O)N(C)C)[nH]3)n(C)c2c(F)c1Cl` [Example 39, 5-(6-chloro-7-fluoro-3-(1H-imidazol-1-yl)-5-methoxy-1-methyl-1H-indol-2-yl)-N,N-dimethyl-4H-1,2,4-triazole-3-carboxamide] it is 48 nM; for `COCCN(C)C(=O)c1nnc(-c2c(-n3ccnc3)c3cc(OC)c(Cl)c(F)c3n2C)[nH]1` [Example 40, 5-(6-chloro-7-fluoro-3-(1H-imidazol-1-yl)-5-methoxy-1-methyl-1H-indol-2-yl)-N-(2-methoxyethyl)-N-methyl-4H-1,2,4-triazole-3-carboxamide] it is 82 nM.
Consider `COc1cc2c(-n3ccnc3)c(-c3nnc(C(=O)N(C)CCO)[nH]3)n(C)c2c(F)c1Cl` [Example 41, 5-(6-chloro-7-fluoro-3-(1H-imidazol-1-yl)-5-methoxy-1-methyl-1H-indol-2-yl)-N-(2-hydroxyethyl)-N-methyl-4H-1,2,4-triazole-3-carboxamide], for which the IC50 was determined as 61 nM.
Next, `COc1cc2c(-n3ccnc3)c(-c3nnc(C(=O)N4CCOCC4)[nH]3)n(C)c2c(F)c1Cl` [Example 42, (5-(6-chloro-7-fluoro-3-(1H-imidazol-1-yl)-5-methoxy-1-methyl-1H-indol-2-yl)-4H-1,2,4-triazol-3-yl)(morpholino)methanone]: 63 nM; `COc1cc2c(-n3ccnc3)c(-c3nnc(C(=O)N4CCC(O)C4)[nH]3)n(C)c2c(F)c1Cl` (stereo not drawn) [Example 43, (5-(6-chloro-7-fluoro-3-(1H-imidazol-1-yl)-5-methoxy-1-methyl-1H-indol-2-yl)-4H-1,2,4-triazol-3-yl)(3-hydroxypyrrolidin-1-yl)methanone]: 61 nM.
Next, `COc1cc2c(-n3ccnc3)c(-c3nnc(C(=O)N4CCC(O)CC4)[nH]3)n(C)c2c(F)c1Cl` [Example 44, (5-(6-chloro-7-fluoro-3-(1H-imidazol-1-yl)-5-methoxy-1-methyl-1H-indol-2-yl)-4H-1,2,4-triazol-3-yl)(4-hydroxypiperidin-1-yl)methanone]: 58 nM; `COc1cc2c(-n3ccnc3)c(-c3nnc(C(=O)N4CCCC(O)C4)[nH]3)n(C)c2c(F)c1Cl` (stereo not drawn) [Example 45, (5-(6-chloro-7-fluoro-3-(1H-imidazol-1-yl)-5-methoxy-1-methyl-1H-indol-2-yl)-4H-1,2,4-triazol-3-yl)(3-hydroxypiperidin-1-yl)methanone]: 56 nM.
For `COc1cc2c(-n3ccnc3)c(-c3nnc(C(=O)N4CCN(C)CC4)[nH]3)n(C)c2c(F)c1Cl` [Example 46, (5-(6-chloro-7-fluoro-3-(1H-imidazol-1-yl)-5-methoxy-1-methyl-1H-indol-2-yl)-4H-1,2,4-triazol-3-yl)(4-methylpiperazin-1-yl)methanone], the IC50 stood at 138 nM.
For `COc1cc2c(-n3ccnc3)c(-c3nnc(C(F)(F)F)[nH]3)n(C)c2c(F)c1Cl` [Example 47, 6-chloro-7-fluoro-3-(1H-imidazol-1-yl)-5-methoxy-1-methyl-2-(5-(trifluoromethyl)-4H-1,2,4-triazol-3-yl)-1H-indole], the IC50 is 121 nM.
Next, `COc1cc2c(-n3ccnc3)c(-c3nnc(C(F)(F)F)[nH]3)[nH]c2c(F)c1Cl` [Example 48, 6-chloro-7-fluoro-3-(1H-imidazol-1-yl)-5-methoxy-2-(5-(trifluoromethyl)-4H-1,2,4-triazol-3-yl)-1H-indole]: 66 nM.
As to `COCc1nnc(-c2c(-n3ccnc3)c3cc(OC)c(Cl)c(F)c3n2C)[nH]1` [Example 49, 6-chloro-7-fluoro-3-(1H-imidazol-1-yl)-5-methoxy-2-(5-(methoxymethyl)-4H-1,2,4-triazol-3-yl)-1-methyl-1H-indole], the half-inhibitory concentration (IC50) came out at 107 nM.
Next, `COc1cc2c(-n3ccnc3)c(-c3nnc(CSC)[nH]3)n(C)c2c(F)c1Cl` [Example 50, 6-Chloro-7-fluoro-3-(1H-imidazol-1-yl)-5-methoxy-1-methyl-2-(5-((methylthio)methyl)-4H-1,2,4-triazol-3-yl)-1H-indole]: 57 nM.
The figure for `COc1cc2c(-n3ccnc3)c(-c3nnc(CCO)[nH]3)n(C)c2c(F)c1Cl` [Example 51, 2-(5-(6-chloro-7-fluoro-3-(1H-imidazol-1-yl)-5-methoxy-1-methyl-1H-indol-2-yl)-4H-1,2,4-triazol-3-yl)ethan-1-ol] is 169 nM.
